The assay deals with T1, 15-hydroxyprostaglandin dehydrogenase [NAD(+)] (Homo sapiens, UniProt P15428).
T1 sequence (P15428 whole entry): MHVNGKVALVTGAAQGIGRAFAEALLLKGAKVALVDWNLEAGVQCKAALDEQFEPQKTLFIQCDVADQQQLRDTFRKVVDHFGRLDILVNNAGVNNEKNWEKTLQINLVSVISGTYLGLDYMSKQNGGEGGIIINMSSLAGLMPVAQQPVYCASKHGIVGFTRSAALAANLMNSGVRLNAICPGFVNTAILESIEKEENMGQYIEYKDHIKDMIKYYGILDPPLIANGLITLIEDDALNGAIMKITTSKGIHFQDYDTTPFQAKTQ
The assay is described as follows: Inhibition test of compounds on 15-PGDH enzyme. As for the experimental part:
15-PGDH (R&D Systems, Cat. No.: 5660-DH-010) was prepared to twice the final concentration, i.e., 30 nM, using Assay Buffer (50 mM Tris-HCl, pH 7.5, 0.01vol % Tween 20). The obtained mixture was then added to a 384-well white plate (Cisbio Bioassays, Cat. No. 66PL384025) at 8 μL/well. Negative control wells (with Assay Buffer only and without enzyme) were set. The compound was then prepared to 4 times the final concentration using Assay Buffer, i.e., diluted 3-fold to 10 concentrations starting from 4000 nM. The obtained mixture was added to the above white plate at 4 μL/well, mixed well, centrifuged at 1000 rpm for 1 minute, and incubated at 25° C. for 10 minutes. Both positive control wells (with 15-PGDH only) and negative control wells (without 15-PGDH) were set. A mixture of NAD+(Select, Cat. No. S2518) and PGE2 (R&D Systems, Cat. No.: 2296/10) was then prepared using Assay Buffer. NAD+ and PGE2 were prepared to four times their final concentrations, i.e., 2 mM and 0.12 mM, respectively, using Assay Buffer. The obtained mixture was then added to the above white plate at 4 μL/well, mixed well, centrifuged at 1000 rpm for 1 minute, and incubated at 25° C. for 30 minutes for the reaction. The fluorescence was detected at an excitation wavelength of 340 nm and an emission wavelength of 485 nm using instrument TECAN SPARK 20M.

`Cn1ccc2c(c1=O)=CCC(N1C[C@@H]3C[C@@H]3C3C=C(C(=O)N4CCC(F)(F)CC4)C=NC31)C=2` (some centres not stated) [US20250034134, Compound I-12A] registered an IC50 of 1.52 nM.

Turning to `CNC(=O)c1ccc(N2CC3CC3C3C=C(C(=O)N4CCC(F)(F)CC4)C=NC32)cc1F` (configuration not stated) [US20250034134, Compound I-9], half-maximal inhibition (IC50) was put at 9.51 nM.

For `CN1NC2C=C(N3CC4CC4C4C=C(C(=O)N5CCC6(CC5)CC6)C=NC43)C=CN2C1=O` (configuration not stated) [US20250034134, Compound I-28], the IC50 is 1.71 nM.

On to `CN1NC2C=C(N3CC4CC4C4C=C(C(=O)N5CCCC(F)(F)C5)C=NC43)C=CN2C1=O` (configuration not stated) [US20250034134, Compound I-24], for which half-maximal inhibition (IC50) was put at 4.23 nM.

Turning to `CN1NC2C=C(N3C[C@H]4C[C@@H]4C4C=C(C(=O)N5CCC(F)(F)CC5)C=NC43)C=CN2C1=O` (some centres not stated) [US20250034134, Compound I-3B], half-maximal inhibition (IC50) was put at 3.58 nM.

For the compound `Cn1nc2cc(N3CC4CC4C4C=C(C(=O)N5CCOCC5)C=NC43)ccn2c1=O` (configuration not stated) [US20250034134, Compound I-22], the IC50 turned out to be 10.2 nM.

In turn, `[2H]C([2H])([2H])N1NC2C=C(N3CC4CC4C4C=C(C(=O)N5CCC(F)(F)CC5)C=NC43)C=CN2C1=O` (configuration not stated) [US20250034134, Compound I-25] returned an IC50 of 2.59 nM.

`O=C(C1=CC2C3CC3CN(C3=CC4NN=CN4C=C3)C2N=C1)N1CCC(F)(F)CC1` (configuration not stated) [US20250034134, Compound I-17] gave an IC50 of 4.5 nM.

For `[2H]C([2H])([2H])N1NC2C=C(N3C[C@H]4C[C@@H]4C4C=C(C(=O)N5CCC(F)(F)CC5)C=NC43)C=CN2C1=O` (some centres not stated) [US20250034134, Compound I-25B], inhibition was half-maximal at 3.78 nM (IC50).

`CN1C=NC2C=C(N3CC4CC4C4C=C(C(=O)N5CCC(F)(F)CC5)C=CC43)C=NC2C1=O` (configuration not stated) [US20250034134, Compound I-15] came in with an IC50 of 5.7 nM.

Take `CN1NC2C=C(N3CC4CC4C4C=C(C(=O)N5CCC[C@@H](CF)C5)C=NC43)C=CN2C1=O` (some centres not stated) [US20250034134, Compound I-30]: the IC50 was determined as 6 nM.

For the compound `CN1NC2C=C(N3CC4CC4C4C=C(C(=O)N5CCC(F)(F)C5)C=NC43)C=CN2C1=O` (configuration not stated) [US20250034134, Compound I-21], half-maximal inhibition (IC50) was put at 4.95 nM.

Turning to `N#Cc1ccc(N2CC3CC3C3C=C(C(=O)N4CCC(F)(F)CC4)C=NC32)cc1` (configuration not stated) [US20250034134, Compound I-11], the IC50 was 3.8 nM.

`CN1NC2C=C(N3CC4CC4C4C=C(C(=O)N5CCCC(C(F)F)C5)C=NC43)C=CN2C1=O` (configuration not stated) [US20250034134, Compound I-23] registered an IC50 of 4.26 nM.

As for `CN1NC2C=C(N3CC4CC4C4C=C(C(=O)N5CCCC(F)C5)C=NC43)C=CN2C1=O` (configuration not stated) [US20250034134, Compound I-27], half-maximal inhibition (IC50) was put at 5.7 nM.

Consider `O=C(C1=CC2C3CC3CN(C3=CC4NC=NN4C=C3)C2N=C1)N1CCC(F)(F)CC1` (configuration not stated) [US20250034134, Compound I-16], for which the half-maximal inhibitory concentration (IC50) amounted to 5.4 nM.

In the case of `Cn1ccc2c(c1=O)=CCC(N1CC3CC3C3C=C(C(=O)N4CCC(F)(F)CC4)C=NC31)C=2` (configuration not stated) [US20250034134, Compound I-12], 2.1 nM corresponded to half-maximal inhibition (IC50).

As to `Cn1nc2cc(N3CC4CC4C4C=C(C(=O)N5CCCC(C(F)(F)F)C5)C=NC43)ccn2c1=O` (configuration not stated) [US20250034134, Compound I-26], the IC50 stood at 9.9 nM.

For `Cn1ccc2c(c1=O)=CCC(N1C[C@H]3C[C@@H]3C3C=C(C(=O)N4CCC(F)(F)CC4)C=NC31)C=2` (some centres not stated) [US20250034134, Compound I-12B], the IC50 worked out at 7.42 nM.

As to `CN1CC2=CC(N3CC4CC4C4C=C(C(=O)N5CCC(F)(F)CC5)C=NC43)CN=C2C1=O` (configuration not stated) [US20250034134, Compound I-2], the IC50 came to 5.15 nM.

For `CN1C(=O)C2=NCC(N3CC4CC4C4C=C(C(=O)N5CCC(F)(F)CC5)C=NC43)C=C2C12CC2` (configuration not stated) [US20250034134, Compound I-19], 3.72 nM corresponded to half-maximal inhibition (IC50).

`CN1NC2C=C(N3CC4CC4C4C=C(C(=O)N5CC6CC6C5)C=NC43)C=CN2C1=O` (configuration not stated) [US20250034134, Compound I-29] registered an IC50 of 5.3 nM.

Usually IC50 stands for the concentration that gives 50% inhibition. A higher IC50 goes with weaker potency in that assay.
